Structures are written as SMILES. Active and inactive are the calls of the source. The calls are words filed in the database; no cut-off is given here.

Assay [1] deals with T1, Prosaposin (Homo sapiens) (UniProt P07602).
T1 sequence (whole entry): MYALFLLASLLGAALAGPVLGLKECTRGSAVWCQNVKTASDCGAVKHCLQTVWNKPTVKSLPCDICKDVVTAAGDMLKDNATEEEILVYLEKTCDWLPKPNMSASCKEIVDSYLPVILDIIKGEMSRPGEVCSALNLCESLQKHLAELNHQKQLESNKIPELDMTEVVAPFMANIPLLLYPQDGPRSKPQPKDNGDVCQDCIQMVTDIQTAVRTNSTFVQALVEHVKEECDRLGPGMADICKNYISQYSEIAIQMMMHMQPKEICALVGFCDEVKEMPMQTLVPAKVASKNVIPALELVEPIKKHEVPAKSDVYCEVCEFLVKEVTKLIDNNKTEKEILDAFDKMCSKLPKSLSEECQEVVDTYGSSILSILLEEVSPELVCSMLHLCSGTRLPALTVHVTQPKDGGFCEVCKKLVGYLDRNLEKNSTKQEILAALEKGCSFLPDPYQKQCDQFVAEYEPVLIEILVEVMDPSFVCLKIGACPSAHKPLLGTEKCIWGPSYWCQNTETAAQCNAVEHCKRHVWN
The experiment in a line: Binding affinity to human saposin D (1 to 81 residues) expressed in Escherichia coli assessed as association constant at equilibrium at 25 degree C by fluorescence quenching spectroscopy.

Assay [2] addresses T2, Prosaposin (Homo sapiens, UniProt P07602).
T2 sequence (P07602 whole entry): T1 sequence (whole entry)
The experiment in a line: Binding affinity to human saposin D (1 to 81 residues) expressed in Escherichia coli at 25 degree C by fluorescence quenching spectroscopy.

For assay [3], the target named is T1, Prosaposin (Homo sapiens). The experiment in a line: Binding affinity to human saposin D (1 to 81 residues) expressed in Escherichia coli complexed with CerPO4 assessed as decrease in ceramide hydrolysis using ceramide as counter-substrate preincubated the protein-ceramide complex for 30 mins measured after 24 hrs in presence of acid ceramidase by HPLC analysis.

The target in assay [4] is T2, Prosaposin. The experiment in a line: Binding affinity to human saposin D (1 to 81 residues) expressed in Escherichia coli at 25 degree C by electronic absorption spectroscopy.
The target in assay [5] is T1, Prosaposin (Homo sapiens). The experiment in a line: Binding affinity to human saposin D (1 to 81 residues) expressed in Escherichia coli assessed as decrease in BODIPY-TR labeled ceramide solubilization in sodium phosphate buffer measured after 30 mins by fluorescence assay.
Assay [6] concerns the target T1, Prosaposin (Homo sapiens). The experiment in a line: Binding affinity to human saposin D (1 to 81 residues) expressed in Escherichia coli assessed as inhibition of ceramide hydrolysis preincubated for 30 mins followed by ceramide addition measured after 72 hrs by HPLC analysis.
In assay [7] the target is T1, Prosaposin (Homo sapiens). The experiment in a line: Binding affinity to human saposin D (1 to 81 residues) expressed in Escherichia coli assessed as association constant at equilibrium at 25 degree C by electronic absorption spectroscopy.
Assay [8] has as its target T3, Acid ceramidase (Homo sapiens) (UniProt Q13510).
T3 sequence (whole entry): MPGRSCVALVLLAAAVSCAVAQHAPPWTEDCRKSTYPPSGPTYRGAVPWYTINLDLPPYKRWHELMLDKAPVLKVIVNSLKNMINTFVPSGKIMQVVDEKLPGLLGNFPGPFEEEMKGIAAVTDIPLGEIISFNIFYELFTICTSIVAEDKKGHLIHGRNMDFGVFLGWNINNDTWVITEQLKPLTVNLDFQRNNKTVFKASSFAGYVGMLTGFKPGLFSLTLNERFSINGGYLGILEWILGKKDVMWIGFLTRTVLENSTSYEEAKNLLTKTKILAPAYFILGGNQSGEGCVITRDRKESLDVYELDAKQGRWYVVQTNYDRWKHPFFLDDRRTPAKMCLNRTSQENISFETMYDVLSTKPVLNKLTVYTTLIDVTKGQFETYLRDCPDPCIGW
The experiment in a line: Inhibition of acid ceramidase (unknown origin) assessed as inhibition of ceramide hydrolysis preincubated for 30 mins followed by ceramide addition measured after 72 hrs by HPLC analysis.

For assay [9], the target named is T1, Prosaposin (Homo sapiens). The experiment in a line: Binding affinity to human saposin D (1 to 81 residues) expressed in Escherichia coli complexed with CerOH assessed as decrease in ceramide hydrolysis using ceramide as counter-substrate measured after 24 hrs in presence of acid ceramidase by fluorescence quenching spectroscopy.

Consider `CC1=C(/C=C/C(C)=C/C=C/C(C)=C/C(=O)Nc2ccc(O)cc2)C(C)(C)CCC1` [FENRETINIDE], for which the Ka in [1] and in assay [7] was 1.45 10^5/M each time. The Kd in assay [2] and in assay [4] was 6.9 µM throughout. Besides, the result in assay [3] and in assay [9] was Active. The outcome in assay [5] was inactive. Also, the inhibition result in [6] and in assay [8] was “Active” throughout.

The values above are taken from ChEMBL document CHEMBL4699434, “Fenretinide binding to the lysosomal protein saposin D alters ceramide solubilization and hydrolysis” (RSC Med Chem, 2020).
